From patent US10940139B2, “Compounds that interact with the Ras superfamily for the treatment of cancers, inflammatory diseases, rasopathies, and fibrotic disease” (Shy Therapeutics LLC, priority 2017, dated 2021)

Assays:
[1] = test system: TNFα production in RAW 264.7 macrophage cell line; test: Mouse TNF alpha quantification assay (LPS-stimulated macrophages, ELISA); format: cell-based; conditions: RAW264.7, RAW 264.7 murine leukemia virus transformed macrophage cell lines, LPS stimulation, read-out: TNF-α % Inhibition at 30 μM
[2] = test system: IL6 production in RAW 264.7 macrophage cell line; test: Mouse IL6 quantification assay (LPS-stimulated macrophages, ELISA); format: cell-based; conditions: RAW264.7, RAW 264.7 murine leukemia virus transformed macrophage cell lines, LPS stimulation, read-out: IL-6 % Inhibition at 30 μM

O=C(OCCc1ccccc1)N1CCCc2c(O)nc(-c3ccccn3)nc21 [drawing 2085]
inhibition at 30 µM [1]: 26 to 50% | inhibition at 30 µM [2]: 76 to 100%

CC1CCN(C(=O)c2csc3c(O)nc(-c4ccccn4)nc23)CC1 [drawing 2101]
inhibition at 30 µM [1]: 0% | inhibition at 30 µM [2]: 26 to 50%

COC(=O)c1cc2nc(-c3ccccn3)nc(O)c2s1 [drawing 2299]
inhibition at 30 µM [1]: 51 to 75% | inhibition at 30 µM [2]: 76 to 100%

O=C(Nc1nnc(-c2ccccn2)[nH]1)C1CC(=O)N(CCc2ccccc2)C1 (stereo not shown) [drawing 1958]
inhibition at 30 µM [1]: 0% | inhibition at 30 µM [2]: 1 to 25%

Cn1cnc(-c2nc(O)c3sc(-c4ccncc4)c(-c4ccccc4)c3n2)c1 [drawing 2376]
inhibition at 30 µM [1]: 0% | inhibition at 30 µM [2]: 1 to 25%

CC(C)(C)c1nc(C(=O)Nc2nnc(-c3ccccn3)[nH]2)cs1 [drawing 1991]
inhibition at 30 µM [1]: 0% | inhibition at 30 µM [2]: 1 to 25%

CC(Oc1ccc(C#N)cc1)C(=O)Nc1nnc(-c2ccccn2)[nH]1 (stereo not shown) [drawing 1977]
inhibition at 30 µM [1]: 1 to 25% | inhibition at 30 µM [2]: 1 to 25%

COc1cc(C)c(-c2csc3c(O)nc(-c4ccccn4)nc23)cc1C [drawing 2261]
inhibition at 30 µM [1]: 0% | inhibition at 30 µM [2]: 51 to 75%

CCc1ccccc1OCC(=O)Nc1nnc(-c2ccccn2)[nH]1 [drawing 1982]
inhibition at 30 µM [1]: 0% | inhibition at 30 µM [2]: 26 to 50%

COc1ccccc1C1CC1C(=O)Nc1nnc(-c2ccccn2)[nH]1 (stereo not shown) [drawing 1986]
inhibition at 30 µM [1]: 1 to 25% | inhibition at 30 µM [2]: 26 to 50%

CCOCCNc1nc(-c2nccn2C)nc2sc(-c3ccccc3)c(-c3ccccc3)c12 [drawing 2402]
inhibition at 30 µM [1]: 76 to 100% | inhibition at 30 µM [2]: 76 to 100%

Oc1nc(-c2ccccn2)nc2c(-c3ccc(OC4CCOCC4)cc3)csc12 [drawing 2259]
inhibition at 30 µM [1]: 0% | inhibition at 30 µM [2]: 76 to 100%

Oc1nc(-c2ccccn2)nc2c(-c3cc(F)ccc3OC(F)F)csc12 [drawing 2252]
inhibition at 30 µM [1]: 26 to 50% | inhibition at 30 µM [2]: 76 to 100%

COc1cccc(CC(=O)Nc2nnc(-c3ccccn3)[nH]2)c1 [drawing 1933]
inhibition at 30 µM [1]: 1 to 25% | inhibition at 30 µM [2]: 26 to 50%

O=c1nc(-c2ccccn2)[nH]c2c1sc1ccccc12 [drawing 2030]
inhibition at 30 µM [1]: 76 to 100% | inhibition at 30 µM [2]: 76 to 100%

CN(Cc1cnn(C)c1)c1nc(-c2ccccn2)nc2scc(-c3ccccc3)c12 [drawing 2141]
inhibition at 30 µM [1]: 26 to 50% | inhibition at 30 µM [2]: 76 to 100%

Cc1cnccc1-c1csc2c(O)nc(-c3ccccn3)nc12 [drawing 2280]
inhibition at 30 µM [1]: 26 to 50% | inhibition at 30 µM [2]: 76 to 100%

O=C(c1csc2c(O)nc(-c3ccccn3)nc12)N1CCN(c2ccncc2)CC1 [drawing 2108]
inhibition at 30 µM [1]: 0% | inhibition at 30 µM [2]: 1 to 25%

CC(C)Oc1cnc(-c2ccccn2)nc1O [drawing 2319]
inhibition at 30 µM [1]: 1 to 25% | inhibition at 30 µM [2]: 76 to 100%

Cn1ccnc1-c1nc(O)c2scc(-c3cccc(C(F)(F)F)c3)c2n1 [drawing 2425]
inhibition at 30 µM [1]: 51 to 75% | inhibition at 30 µM [2]: 76 to 100%

O=C(Nc1nnc(-c2ccccn2)[nH]1)c1cccc(N2CCCS2(=O)=O)c1 [drawing 1989]
inhibition at 30 µM [1]: 1 to 25% | inhibition at 30 µM [2]: 1 to 25%

O=C(c1csc2c(O)nc(-c3ccccn3)nc12)N1CCNC(c2ccc(O)cc2)C1 (stereo not shown) [drawing 2218]
inhibition at 30 µM [1]: 0% | inhibition at 30 µM [2]: 1 to 25%

COc1nc(-c2ccccn2)nc2c(C3CCCCC3)csc12 [drawing 2317]
inhibition at 30 µM [1]: 1 to 25% | inhibition at 30 µM [2]: 26 to 50%

Cc1ccc(CC(=O)Nc2nnc(-c3ccccn3)[nH]2)cc1 [drawing 1943]
inhibition at 30 µM [1]: 0% | inhibition at 30 µM [2]: 1 to 25%

COc1ccc(COC[C@H]2O[C@@H](c3csc4c(=O)[nH]c(-c5ccccn5)nc34)[C@H](O)[C@@H]2O)cc1 [drawing 2360]
inhibition at 30 µM [1]: 26 to 50% | inhibition at 30 µM [2]: 1 to 25%

COCCCCNC(=O)c1csc2nc(-c3ccccn3)nc(N3CCOCC3)c12 [drawing 2205]
inhibition at 30 µM [1]: 1 to 25% | inhibition at 30 µM [2]: 1 to 25%

COCCCn1ccc(Nc2cc(C)nc(-c3ccccn3)n2)n1 [drawing 2041]
inhibition at 30 µM [1]: 0% | inhibition at 30 µM [2]: 26 to 50%

CN1CCN(c2nc(-c3ccccn3)nc3scc(C(=O)NCCc4cnc(O)nc4)c23)CC1 [drawing 2291]
inhibition at 30 µM [1]: 26 to 50% | inhibition at 30 µM [2]: 26 to 50%

Cn1cnc(-c2nc(O)c3c(-c4ccccc4)c(-c4ccc(CNC(=O)OC(C)(C)C)cc4)sc3n2)c1 [drawing 2364]
inhibition at 30 µM [1]: 0% | inhibition at 30 µM [2]: 1 to 25%

O=C(Nc1nnc(-c2ccccn2)[nH]1)c1ccc2c(c1)CCO2 [drawing 1930]
inhibition at 30 µM [1]: 0% | inhibition at 30 µM [2]: 1 to 25%

COc1cccc(CN2CCN(C(=O)c3csc4c(O)nc(-c5ccccn5)nc34)CC2)c1 [drawing 2188]
inhibition at 30 µM [1]: 0% | inhibition at 30 µM [2]: 51 to 75%

CCN(CC)S(=O)(=O)c1ccc(NCCOC)c(C(=O)NCCSCc2ccc(C)cc2)c1 [drawing 2066]
inhibition at 30 µM [1]: 26 to 50% | inhibition at 30 µM [2]: 26 to 50%

CC(C)COc1ccc(-c2csc3c(O)nc(-c4cn(C)cn4)nc23)cn1 [drawing 2432]
inhibition at 30 µM [1]: 26 to 50% | inhibition at 30 µM [2]: 76 to 100%

O=C(NCCc1ccncn1)c1csc2nc(-c3ccccn3)nc(N3CCOCC3)c12 [drawing 2321]
inhibition at 30 µM [1]: 0% | inhibition at 30 µM [2]: 1 to 25%

COc1cc2c(cc1OC)CCN(C(=O)c1csc3c(O)nc(-c4ccccn4)nc13)CC2 [drawing 2117]
inhibition at 30 µM [1]: 1 to 25% | inhibition at 30 µM [2]: 26 to 50%

N#Cc1ccc2c(c1)CCCC2C(=O)Nc1ccnc(-c2ccccn2)n1 (stereo not shown) [drawing 2248]
inhibition at 30 µM [1]: 0% | inhibition at 30 µM [2]: 1 to 25%

Oc1nc(-c2ccccn2)nc2cc(-c3ccncc3)sc12 [drawing 2388]
inhibition at 30 µM [1]: 1 to 25% | inhibition at 30 µM [2]: 26 to 50%

Oc1nc(-c2ccccn2)nc2c(-c3ccc(Cl)c(Cl)c3)csc12 [drawing 2301]
inhibition at 30 µM [1]: 0% | inhibition at 30 µM [2]: 26 to 50%

COc1cccc(COCC(=O)Nc2nnc(-c3ccccn3)[nH]2)c1 [drawing 1985]
inhibition at 30 µM [1]: 1 to 25% | inhibition at 30 µM [2]: 26 to 50%

O=C(c1csc2c(O)nc(-c3ccccn3)nc12)N1CCC(c2ccncc2)C1 (stereo not shown) [drawing 2232]
inhibition at 30 µM [1]: 1 to 25% | inhibition at 30 µM [2]: 76 to 100%

CC(C)Oc1ccc(-c2csc3c(O)nc(-c4nccn4C)nc23)cc1F [drawing 2436]
inhibition at 30 µM [1]: 0% | inhibition at 30 µM [2]: 1 to 25%

Oc1nc(-c2ccccn2)nc2cc(-c3ccccc3Cl)sc12 [drawing 2383]
inhibition at 30 µM [1]: 0% | inhibition at 30 µM [2]: 26 to 50%

O=S1(=O)CCN(Cc2cccc(-c3csc4c(O)nc(-c5ccccn5)nc34)c2)CC1 [drawing 2256]
inhibition at 30 µM [1]: 1 to 25% | inhibition at 30 µM [2]: 76 to 100%

CCC(C)c1csc2c(OC)nc(-c3ccccn3)nc12 (stereo not shown) [drawing 2310]
inhibition at 30 µM [1]: 1 to 25% | inhibition at 30 µM [2]: 26 to 50%

CN(CC(=O)Nc1nnc(-c2ccccn2)[nH]1)S(C)(=O)=O [drawing 1959]
inhibition at 30 µM [1]: 1 to 25% | inhibition at 30 µM [2]: 0%

COCC(C)Nc1nc(-c2ccccn2)nc2sc(-c3ccncc3)c(-c3ccccc3)c12 (stereo not shown) [drawing 2368]
inhibition at 30 µM [1]: 26 to 50% | inhibition at 30 µM [2]: 0%

Brc1csc2nc(-c3ccccn3)nc(N3CCOCC3)c12 [drawing 2126]
inhibition at 30 µM [1]: 0% | inhibition at 30 µM [2]: 51 to 75%

O=c1nc(-c2ccccn2)[nH]c2ccsc12 [drawing 2027]
inhibition at 30 µM [1]: 0% | inhibition at 30 µM [2]: 1 to 25%

c1ccc(-c2csc3nc(-c4ccccn4)nc(N4CCOCC4)c23)cc1 [drawing 2155]
inhibition at 30 µM [1]: 1 to 25% | inhibition at 30 µM [2]: 1 to 25%

COCC(C)Nc1nc(-c2ccccn2)nc(C(=O)NCCCc2c[nH]cn2)c1Oc1ccccc1 (stereo not shown) [drawing 2377]
inhibition at 30 µM [1]: 0% | inhibition at 30 µM [2]: 1 to 25%

O=C(NCCc1cnc(O)nc1)c1csc2nc(-c3ccccn3)nc(N3CCS(=O)(=O)CC3)c12 [drawing 2247]
inhibition at 30 µM [1]: 0% | inhibition at 30 µM [2]: 51 to 75%

Oc1nc(-c2ccccn2)nc2c(-c3ccccc3F)csc12 [drawing 2260]
inhibition at 30 µM [1]: 51 to 75% | inhibition at 30 µM [2]: 76 to 100%

CC(O)CNc1nc(-c2nccn2C)nc2sc(-c3ccccc3)c(-c3ccccc3)c12 (stereo not shown) [drawing 2396]
inhibition at 30 µM [1]: 0% | inhibition at 30 µM [2]: 26 to 50%

Cc1sc2c(O)nc(-c3nccn3C)nc2c1-c1ccccc1Cl [drawing 2429]
inhibition at 30 µM [1]: 1 to 25% | inhibition at 30 µM [2]: 26 to 50%

Cc1cnc(-c2ccccn2)nc1NC(=O)C(C)c1ccc(C#N)cc1 (stereo not shown) [drawing 2209]
inhibition at 30 µM [1]: 1 to 25% | inhibition at 30 µM [2]: 1 to 25%

COc1cn(-c2ccccc2)nc1C(=O)Nc1nnc(-c2ccccn2)[nH]1 [drawing 2000]
inhibition at 30 µM [1]: 0% | inhibition at 30 µM [2]: 26 to 50%

O=C(c1csc2c(O)nc(-c3ccccn3)nc12)N1CCOC(c2ccccc2Cl)C1 (stereo not shown) [drawing 2194]
inhibition at 30 µM [1]: 1 to 25% | inhibition at 30 µM [2]: 76 to 100%

O=C(Nc1nc(-c2ccccn2)cs1)c1ccc(F)cc1 [drawing 2020]
inhibition at 30 µM [1]: 26 to 50% | inhibition at 30 µM [2]: 26 to 50%

O=C1CCN(c2nc(-c3ccccn3)nc3scc(-c4ccccc4)c23)CC1 [drawing 2163]
inhibition at 30 µM [1]: 1 to 25% | inhibition at 30 µM [2]: 1 to 25%

COCC(C)Nc1nc(-c2nccn2C)nc2sc(-c3ccccc3)c(-c3ccccc3)c12 (stereo not shown) [drawing 2404]
inhibition at 30 µM [1]: 76 to 100% | inhibition at 30 µM [2]: 76 to 100%

CN(CC(=O)Nc1nnc(-c2ccccn2)[nH]1)S(=O)(=O)c1ccccc1 [drawing 2001]
inhibition at 30 µM [1]: 0% | inhibition at 30 µM [2]: 1 to 25%

O=C(CCn1ccnc1)Nc1nc(-c2ccccn2)nc2sccc12 [drawing 2281]
inhibition at 30 µM [1]: 0% | inhibition at 30 µM [2]: 51 to 75%

Oc1nc(-c2ccccn2)nc2c(Br)c(-c3ccccc3)sc12 [drawing 2380]
inhibition at 30 µM [1]: 0% | inhibition at 30 µM [2]: 1 to 25%

Cc1cccc(CN(Cc2ccccn2)Cc2nccn2C)c1 [drawing 2048]
inhibition at 30 µM [1]: 1 to 25% | inhibition at 30 µM [2]: 26 to 50%

O=S1(=O)CCC(N2CCN(c3nc(-c4ccccn4)nc4scc(-c5ccccc5)c34)CC2)C1 (stereo not shown) [drawing 2145]
inhibition at 30 µM [1]: 1 to 25% | inhibition at 30 µM [2]: 1 to 25%
